Measurements from patent US8664221B2 (Santen Pharmaceutical Co., Ltd., priority 2008, dated 2014).

Legend:
[1] = tested on: carrageenan-induced paw edema model in rats; test: Carrageenan-induced paw edema model; type: in vivo; settings: female Lewis rat; 10 mg/kg oral, 30 minutes before carrageenan; paw volume 3 hr after injection; read-out: Inhibition ratio of paw edema (%)
Protocol: The inhibitory effect for paw edema using carrageenan-induced paw edema model in rats is known as one of the general methods for testing the inhibitory effect on inflammation on the joint and the like. Therefore, the inhibitory effect of the present compound for paw edema was carried out, the inhibition rate of paw edema was calculated, and then the anti-inflammatory effect of the present compound was evaluated based on the rate. The concrete method of the test is described below.
A 2 mg/mL test compound suspension was prepared by adding 1% methyl cellulose (base) to the test compound.
1) The weight and right hind paw volume of female Lewis rat (8˜10 weeks) were measured before drug administration.
2) The test compound suspension was administered at 10 mg/kg to the test compound group. Meanwhile, 1% methyl cellulose was administered orally at 5 mL/kg to the sham-operation group and vehicle group (control group).
3) After 30 minutes from oral administration, 0.1 mL of a 1% w/v carrageenan/distilled water solution was subcutaneously injected into right foot pad. 0.1 mL of distilled water was subcutaneously injected for sham-operation group.
4) The right hind paw volume was measured 3 hr after injection of carrageenan or distilled water.
(Formulation Concerning Estimation of Drug Activity) The increase ratio of paw volume (%)=100×(right hind paw volume 3 hr after injection of carrageenan or distilled water (mL)−right hind paw volume before the test compound administration (mL))/right hind paw volume before the test compound administration (mL) (Calculation Equation 1) The inhibition ratio of paw edema (%)=100−100×(the increase ratio of paw volume of each test compound group (%)−the increase ratio of paw volume of sham-operation group (%))/(the increase of paw volume of vehicle group (%)−the increase of paw volume of sham-operation group (%)) (Calculation Equation 2) (Test Results and Discussion)

[2] = tested on: IL-6 production induced by lipopolysaccharide (LPS) in human corneal epithelial cells (HCE-T); test: Inhibition of LPS-induced IL-6 production in human corneal epithelial cells (GR agonist activity); type: cell-based; settings: Corneal epithelial cell, 10 μL of 100 μM test compound solution per well, 4 hours incubation, efficacy relative to DEX
Protocol: In order to evaluate a GR agonist activity of the present compound, the inhibitory effects on the IL-6 production induced by lipopolysaccharide (LPS) in human corneal epithelial cells. IL-6 levels in the conditioned medium were measured using the HTRF human IL-6 Kit (boehringer-Ingelheim, Cat No. 62IL6PEB), and the procedure was carried out according to the protocol attached to the kit. Hereinafter, the specific method will be described.
LPS solution: After LPS was dissolved in phosphate buffer solution (hereinafter referred to as PBS(−)), the resulting solution was diluted with 10% FBS-DMEM/F12 medium, whereby a 1 μg/mL LPS solution was prepared.
After a test compound was dissolved in dimethylsulfoxide (hereinafter referred to as DMSO), the resulting solution was diluted with 10% FBS-DMEM/F12 medium, whereby a 100 μM test compound solution was prepared. A 100 μM DEX solution was prepared by the same method, and the inhibitory ratio of IL-6 production of DEX was evaluated to use for calculating efficacy (% DEX).
Used cell: SV40-immortalized human corneal epithelial cells (HCE-T) (RIKEN)
1) HCE-T cells were harvested, and seeded at 2.0×10^4 cells/0.1 mL/well in a 96-well plate.
2) After incubation overnight, the medium was removed and a 80 μL of new 10% FBS-DMEM/Ham's F12 medium was added into each well.
3) A 10 μL of test compounds solution was added into each well.
4) A 10 μL of LPS solution was added into each well.
5) As a negative control, a 10 μL of 10% FBS-DMEM/Ham's F12 medium was added into each well instead of a test compound solution and a LPS solution.
6) As a positive control, a 10 μL of 10% FBS-DMEM/Ham's F12 medium containing 1% DMSO was added into each well instead of a test compound solution.
7) After 4 hours incubation, supernatants were collected and IL-6 levels in the supernatants were quantitated using the HTRF human IL-6 Kit.
8) The inhibition ratio of IL-6 production (%) was calculated according to the following equation.
The inhibition ratio of IL-6 production (%) was calculated according to the following equation. The inhibition ratio of IL-6 production (%)=100×{1−(IL-6 level in each group−mean value of IL-6 level in negative control)/(mean value of IL-6 level in positive control−mean value of IL-6 level in negative control)} (%)
Furthermore, the inhibition ratio of IL-6 production (efficacy (% DEX)) was also calculated according to the following equation. Efficacy(% DEX)=100×{(mean value of IL-6 inhibition in compound-treated group)/(mean value of IL-6 inhibition in DEX-treated group)} (%) (Results and Discussion)

[3] = tested on: allergic conjunctivitis model in mice; test: Inhibitory effect on vascular hyper-permeability in allergic conjunctivitis model; type: in vivo; settings: male BALB/c mice, ovalbumin-sensitized; 1% (W/V) suspension instilled 15 min, 1 hr and 3 hrs before ovalbumin; Evans blue dye leakage; mean of 6 eyes
Protocol: In order to evaluate anti-allergic effect of the present compound, the inhibitory effect on the vascular hyper-permeability in allergic conjunctivitis model in mice was examined. This effect was calculated based on dye leakages of vehicle-treated group (control group) and test compound-treated group.
By adding 0.5% polysorbate 80/saline to the test compound, a 1% (W/V) test compound suspension was prepared.
1) Ovalbumin absorbed on aluminum hydroxide gel was dissolved in saline (20 μg ovalbumin/mL), and male BALB/c mice, 6 weeks old, were actively sensitized to the antigen by intraperitoneal injections of 500 μL of it.
2) On the 6th day from sensitization, sensitized mice were boosted by additional intraperitoneal injections of 500 μL ovalbumin absorbed on aluminum hydroxide gel (20 μg ovalbumin/mL).
3) On the 11th day, 12th day, 13th day, 14th day and 15th day from the first sensitization, allergic conjunctivitis were induced by instillations to the right eyes of the mice of […] of 50% glycerol solution containing 15% (W/V) ovalbumin.
4) […] of test compound suspension per eye was instilled to the right eye of the above mice 15 min, 1 hr and 3 hrs before ovalbumin instillation (three times) on the 15th day from sensitization. In vehicle-treated group (control group), the mice were instilled with 0.5% polysorbate 80/saline in substitution for test compound suspension.
5) Just before ovalbumin instillation on the 15th day from sensitization, all animals received a tail intravenous injection of 0.1% Evans blue dye. The right periocular tissues of the mice, which were the leaked parts of dye, were collected 30 min after ovalbumin instillation. The dye was extracted from the tissues with the dye extraction liquid. Then the absorbance of the dye extract was measured. The dye leakage was calculated from the absorbance value, and the inhibition ratio of the vascular hyper-permeability of test compound-treated group was calculated according to calculation equation 1. The inhibition ratio of the vascular hyper-permeability of test compound-treated group (%)=(1−Ax/Ao)×100 (Calculation Equation 1) • Ao: Dye leakage in vehicle-treated group (control group) • Ax: Dye leakage in test compound-treated group (Test Results and Discussion)

[4] = tested on: choroidal neovascularization (CNV) model in rats; test: Laser induced choroidal neovascularization model; type: in vivo; settings: Brown Norway male rats; 1% (w/v) eye drops four times a day or 20 mg/mL subconjunctival injection (route not given); fluorescein angiography 7 days after laser; mean of 7-8 eyes
Protocol: The choroidal neovascularization (CNV) model in rats is known as one of the popular methods for evaluating the CNV inhibitory effect of drugs. This method is reported in Graefe's Arch. Cli. Exp. Ophthalmol., 235, 313-319 (1997). According to this method, the CNV examinations were performed to evaluate the CNV inhibitory effect of test compounds by comparing the incidence rates of CNV in vehicle group (control group) with test compound-treated groups.
For eye drop administration, a 1% (w/v) test compound suspension was prepared by adding 0.5% polysorbate 80/saline to the test compound. For subconjunctival injection, a 20 mg/mL test compound suspension was prepared by adding 0.5% hydrogenated castor oil/saline to the test compound.
1) Brown Norway male rats (7-8 weeks) were anesthetized with intramuscular injection (1 mL/kg) of the mixed solution (5% ketamine HCl:2% xylazine HCl=7:1).
2) After mydriasis using tropicamide phenylephrine hydrochloride eye drops (trade name Mydrin P), laser photocoagulation of bruch's membrane in rats was performed with krypton laser photocoagulation machine. Laser irradiation was performed at 8 points per eye avoiding thick retinal blood vessels in ocular fundus and focusing on the depth of retina. The conditions were 100 μm spot size, 100 mW power, 0.1 second duration.
3) After laser photocoagulation, photographs of ocular fundus were taken and the laser photocoagulation (laser irradiation) points were confirmed.
1) In case of eye drops administration, a test compound suspension was administrated four times a day from laser irradiation day (the 1st day) to the 8th day. In case of subconjunctival injection, a 50 μL test compound suspension was injected into conjunctivae just after laser irradiation.
2) In vehicle group (control group), 0.5% polysorbate 80/saline or 0.5% hydrogenated castor oil/saline was used instead of a test compound suspension. And the test was performed according to the method 1).
1) 7 days after laser irradiation, 0.1 mL of 10% fluorescein was injected into rat tail vein and fluorescein angiography was performed.
2) When the fluorescent leakage was not detected in the fluorescent angiography, the spot was judged to be a negative spot. When the fluorescent leakage was detected, the spot was judged to be a positive spot. When the fluorescent leakage was detected as a little leakage, two spots were counted as one positive spot.
3) The neovascular incidence rate was calculated according to the equation 1. According to the equation 2, the ratio of neovascular incidence rate in test compound group to vehicle group was calculated. Neovascular incidence rate (%)=(Positive spots/all spots)×100 (Equation 1) Angiogenic inhibition ratio in test compound group (%)=(1−Ax/Ao)×100 (Equation 2)
Ao: Neovascular incidence rate in vehicle group (control group)
Ax: Neovascular incidence rate in test compound group

SMILES	inhibition in vivo at 10 mg/kg [1]	Emax [2]	The inhibition ratio of the vascular hyper-permeability (%) [3]	Angiogenic inhibition ratio (%) [4]
COc1cc(OS(=O)(=O)C2CC2)ccc1-c1ccc2c(c1CNc1cc(F)ccc1C)N(C)C(=O)C(C)(C)N2	52%	81%	–	–
COc1cc(OS(C)(=O)=O)ccc1-c1ccc2c(c1COc1cc(F)ccc1C)N(C)C(=O)C(C)(C)N2 [Compound No. 1-1, 8-(5-Fluoro-2-methylphenoxymethyl)-7-(2-methoxy-4-methylsulfonyloxyphenyl)-1,3,3-trimethyl-3,4-dihydro-1H-quinoxalin-2-one]	–	92%	36%	31%
CCS(=O)(=O)Oc1ccc(-c2ccc3c(c2COc2cc(F)ccc2C)N(C)C(=O)C(C)(C)N3)c(OC)c1 [Compound No. 1-6, 7-(4-Ethylsulfonyloxy-2-methoxyphenyl)-8-(5-fluoro-2-methyl-phenoxymethyl)-1,3,3-trimethyl-3,4-dihydro-1H-quinoxalin-2-one]	63%	86%	–	–
COc1cc(OS(=O)(=O)C(C)C)ccc1-c1ccc2c(c1COc1cc(F)ccc1C)N(C)C(=O)C(C)(C)N2 [Compound No. 1-7, 8-(5-Fluoro-2-methylphenoxymethyl)-7-(4-isopropylsulfonyloxy-2-methoxyphenyl)-1,3,3-trimethyl-3,4-dihydro-1H-quinoxalin-2-one]	43%	94%	–	–
COc1cc(OS(=O)(=O)C2CC2)ccc1-c1ccc2c(c1COc1cc(F)ccc1C)N(C)C(=O)C(C)(C)N2 [Compound No. 1-13, 7-(4-Cyclopropylsulfonyloxy-2-methoxyphenyl)-8-(5-fluoro-2-methyl-phenoxymethyl)-1,3,3-trimethyl-3,4-dihydro-1H-quinoxalin-2-one]	67%	100%	–	38%
COc1cc(OS(=O)(=O)C2CC2)ccc1-c1ccc2c(c1COc1cc([N+](=O)[O-])ccc1C)N(C)C(=O)C(C)(C)N2 [Compound No. 1-32, 7-(4-Cyclopropylsulfonyloxy-2-methoxyphenyl)-8-(2-methyl-5-nitrophenoxymethyl)-1,3,3-trimethyl-3,4-dihydro-1H-quinoxalin-2-one]	61%	90%	–	–
CCCS(=O)(=O)Oc1ccc(-c2ccc3c(c2COc2cc([N+](=O)[O-])ccc2C)N(C)C(=O)C(C)(C)N3)c(OC)c1 [Compound No. 1-38, 7-(2-Methoxy-4-propylsulfonyloxyphenyl)-8-(2-methyl-5-nitrophenoxy-methyl)-1,3,3-trimethyl-3,4-dihydro-1H-quinoxalin-2-one]	50%	94%	–	33%
COc1cc(OS(=O)(=O)C2CCCC2)ccc1-c1ccc2c(c1CNc1cc(F)ccc1C)N(C)C(=O)C(C)(C)N2 [Compound No. 1-43, 7-(4-cyclopentylsulfonyloxy-2-methoxyphenyl)-8-(5-fluoro-2-methyl-phenylaminomethyl)-1,3,3-trimethyl-3,4-dihydro-1H-quinoxalin-2-one]	–	82%	–	18%
COc1ccccc1NCc1c(-c2ccc(OS(=O)(=O)C(C)C)cc2OC)ccc2c1N(C)C(=O)C(C)(C)N2 [Compound No. 2-5]	40%	74%	–	–
CCCS(=O)(=O)Oc1ccc(-c2ccc3c(c2CNc2ccccc2OC)N(C)C(=O)C(C)(C)N3)c(OC)c1 [Compound No. 2-7, 8-(2-Methoxyphenylaminomethyl)-7-(2-methoxy-4-propylsulfonyl-oxyphenyl)-1,3,3-trimethyl-3,4-dihydro-1H-quinoxalin-2-one]	52%	94%	35%	–
